Source: the NIST ThermoML archive (doi:10.1016/j.fluid.2010.03.001)
Numbers after ± are expanded uncertainties.

How the values were obtained:
[1] = Liquid; for viscosity / mass density: 101.33 kPa; for viscosity: Concentric cylinders viscometry; for mass density: Vibrating tube method; for vapor or sublimation pressure: Ebulliometric method (Recirculating still)
[2] = xn = mol fraction of the nth substance listed; settings: 101 kPa, Liquid, x1 = 1; for viscosity: Concentric cylinders viscometry; for mass density: Vibrating tube method

| SMILES | viscosity ([1]; 293.15 K) [mPa·s] | viscosity ([1]; 298.15 K) [mPa·s] | mass density ([1]; 298.15 K) [kg/m3] | viscosity ([1]; 303.15 K) [mPa·s] | mass density ([1]; 303.15 K) [kg/m3] | viscosity ([1]; 313.15 K) [mPa·s] | mass density ([1]; 313.15 K) [kg/m3] | viscosity ([1]; 323.15 K) [mPa·s] | mass density ([1]; 323.15 K) [kg/m3] | viscosity ([1]; 333.15 K) [mPa·s] | mass density ([1]; 333.15 K) [kg/m3] | viscosity ([1]; 343.15 K) [mPa·s] | mass density ([1]; 343.15 K) [kg/m3] | viscosity ([1]; 353.15 K) [mPa·s] | mass density ([1]; 353.15 K) [kg/m3] | viscosity ([1]; 363.15 K) [mPa·s] | mass density ([1]; 363.15 K) [kg/m3] | viscosity ([1]; 373.15 K) [mPa·s] | mass density ([1]; 373.15 K) [kg/m3] | other results |
| --- | --- | --- | --- | --- | --- | --- | --- | --- | --- | --- | --- | --- | --- | --- | --- | --- | --- | --- | --- | --- |
| CCCCCO [pentan-1-ol] | 4.03 ± 0.04 | 3.48 ± 0.04 | 810.7 ± 0.3 | 3.02 ± 0.03 | 807.2 ± 0.3 | 2.315 ± 0.024 | 799.8 ± 0.3 | 1.801 ± 0.019 | 792.2 ± 0.3 | 1.425 ± 0.015 | 784.3 ± 0.3 | 1.146 ± 0.013 | 776.3 ± 0.3 | 0.935 ± 0.011 | 768 ± 0.3 | 0.772 ± 0.009 | 759.5 ± 0.3 | 0.647 ± 0.008 | 750.6 ± 0.3 | mass density ([1]; 293.15 K): 814.7 ± 0.3 kg/m3; vapor or sublimation pressure ([1]; 328.15 K): 2.3 ± 0.1 kPa; vapor or sublimation pressure ([1]; 329.5 K): 2.5 ± 0.1 kPa; vapor or sublimation pressure ([1]; 333.15 K): 3.1 ± 0.1 kPa; vapor or sublimation pressure ([1]; 338.15 K): 4.2 ± 0.1 kPa; vapor or sublimation pressure ([1]; 341.2 K): 5 ± 0.1 kPa; vapor or sublimation pressure ([1]; 343.15 K): 5.6 ± 0.1 kPa; vapor or sublimation pressure ([1]; 348.75 K): 7.5 ± 0.1 kPa; vapor or sublimation pressure ([1]; 354.37 K): 10 ± 0.1 kPa; vapor or sublimation pressure ([1]; 362.63 K): 15 ± 0.1 kPa; vapor or sublimation pressure ([1]; 368.86 K): 20 ± 0.1 kPa; vapor or sublimation pressure ([1]; 378.2 K): 30 ± 0.1 kPa; vapor or sublimation pressure ([1]; 385.33 K): 40 ± 0.1 kPa; vapor or sublimation pressure ([1]; 391.03 K): 50 ± 0.1 kPa; vapor or sublimation pressure ([1]; 395.87 K): 60 ± 0.2 kPa; vapor or sublimation pressure ([1]; 400.1 K): 70 ± 0.2 kPa; vapor or sublimation pressure ([1]; 403.86 K): 80 ± 0.2 kPa; vapor or sublimation pressure ([1]; 407.25 K): 90 ± 0.2 kPa; vapor or sublimation pressure ([1]; 408.9 K): 95.1 ± 0.2 kPa |
| CCCCCO [pentan-1-ol] + C=C(C)[C@H]1CC=C(C)CC1 |  |  |  |  |  |  |  |  |  |  |  |  |  |  |  |  |  |  |  | viscosity ([2]; 293.15 K): 4.03 ± 0.04 mPa·s; mass density ([2]; 293.15 K): 814.7 ± 0.3 kg/m3; viscosity ([2]; 303.15 K): 3.02 ± 0.03 mPa·s; mass density ([2]; 303.15 K): 807.2 ± 0.3 kg/m3; viscosity ([2]; 313.15 K): 2.315 ± 0.024 mPa·s; mass density ([2]; 313.15 K): 799.8 ± 0.3 kg/m3; viscosity ([2]; 323.15 K): 1.801 ± 0.019 mPa·s; mass density ([2]; 323.15 K): 792.2 ± 0.3 kg/m3; viscosity ([2]; 333.15 K): 1.425 ± 0.015 mPa·s; mass density ([2]; 333.15 K): 784.3 ± 0.3 kg/m3; viscosity ([2]; 343.15 K): 1.146 ± 0.013 mPa·s; mass density ([2]; 343.15 K): 776.3 ± 0.3 kg/m3; viscosity ([2]; 353.15 K): 0.935 ± 0.011 mPa·s; mass density ([2]; 353.15 K): 768 ± 0.3 kg/m3; viscosity ([2]; 363.15 K): 0.772 ± 0.009 mPa·s; mass density ([2]; 363.15 K): 759.5 ± 0.3 kg/m3; viscosity ([2]; 373.15 K): 0.647 ± 0.008 mPa·s; mass density ([2]; 373.15 K): 750.6 ± 0.3 kg/m3 |
| C=C(C)[C@H]1CC=C(C)CC1 [(R)-1-methyl-4-(1-methylethenyl)cyclohexene] | 0.902 ± 0.014 | 0.89 ± 0.014 | 837.3 ± 1 | 0.793 ± 0.013 | 833.6 ± 1 | 0.702 ± 0.011 | 825.8 ± 1 | 0.628 ± 0.01 | 817.9 ± 1 | 0.566 ± 0.01 | 809.9 ± 0.9 | 0.5 ± 0.009 | 801.9 ± 0.9 | 0.452 ± 0.008 | 793.6 ± 0.9 | 0.413 ± 0.008 | 785.4 ± 0.9 | 0.382 ± 0.007 | 777.1 ± 0.9 |  |
